The test system of data set [1] is P388 mouse leukemia cells. The conditions noted are these: 92 h. The method, boiled down: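 P388 cells at 1 × 10^4 cells/mL (final) were exposed to library peptides (stocks diluted 250-fold in RPMI1640/10% FBS) for 92 h at 37 °C, 5% CO2. Viable cells were counted by WST-1/1-methoxy PMS (4 h), absorbance 415 nm, and expressed as cell viability (%).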
The subject of data set [2] is Streptococcus pyogenes SSI-9. Nature of the data set: Antibacterial activity assay of bead-derived peptides (three concentrations). Format: cell-based. Further details: key: +++: inhibition by the 640-fold diluted peptide solution; ++: inhibition by the 160-fold diluted solution; +: inhibition by the 40-fold diluted solution; -: no inhibition. The conditions noted are these: S. pyogenes, bead-derived peptide solution, three concentrations. In outline:
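Library peptide stock applied undiluted, 4-fold and 16-fold diluted in DMSO to S. pyogenes SSI-9 (2 × 10^5 CFU) in cation-adjusted Mueller Hinton broth with 5% laked horse blood. After 18 h at 37 °C, growth judged by visible cell precipitation.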

A short description of data set [3]: H+/Na+ transport assay of bead-derived peptides (one-point).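 Further: relative to parent gramicidin A activity set to 1.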 The format is biochemical. Further details: key: relative activity; mean of two control wells = 1.00. The conditions noted are these: bead-derived peptide solution, EYPC/EYPG LUVs. The method, boiled down:
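One-point screen: peptide + pyranine-loaded LUVs, 30 min RT with vortexing, 96-well. Read-out is fluorescence intensity scaled as 100 × (Ix – I0)/(Imax – I0). Imax from Triton X-100, I0 from untreated vesicles, and the mean of the two control wells is set to 1.00.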

Where a SMILES comes first, the peptide text is derived from it. [ ]: non-standard residue; d: D form. The star is where a group is joined. NHCH2CH2OH = OCCN*; For = O=C*

In turn, `CC(C)C[C@@H](NC(=O)[C@H](C)NC(=O)CNC(=O)[C@@H](NC=O)C(C)C)C(=O)N[C@@H](C)C(=O)N[C@@H](C(=O)N[C@H](C(=O)N[C@@H](C(=O)N[C@@H](Cc1c[nH]c2ccccc12)C(=O)N[C@@H](C(=O)N[C@@H](Cc1c[nH]c2ccccc12)C(=O)N[C@H](CC(C)C)C(=O)N[C@@H](Cc1c[nH]c2ccccc12)C(=O)N[C@@H](C(=O)N[C@@H](Cc1c[nH]c2ccccc12)C(=O)NCCO)C(C)C)C(C)C)[C@H](C)O)C(C)C)C(C)C` [compound 4427] (For-VGA[dL]A[dV]V[dT]W[dV]W[dL]W[dV]W-NHCH2CH2OH) gave a cell viability/% in data set [1] of 100.0%. Also, in data set [2], the antibacterial activity entry is recorded as “-”. Moreover, the “H+/Na+ transport activity normalized against the value of 1 (1.00)” value (from here on “H+/Na+ transport activity normalized”) in data set [3] is recorded as 1.18.
Consider `CC(C)C[C@@H](NC(=O)[C@H](Cc1c[nH]c2ccccc12)NC(=O)[C@H](NC(=O)[C@@H](NC(=O)[C@H](NC(=O)[C@H](C)NC(=O)[C@H](NC(=O)[C@H](C)NC(=O)CNC(=O)[C@@H](NC=O)C(C)C)[C@H](C)O)C(C)C)C(C)C)C(C)C)C(=O)N[C@@H](Cc1c[nH]c2ccccc12)C(=O)N[C@H](CC(C)C)C(=O)N[C@@H](Cc1c[nH]c2ccccc12)C(=O)N[C@@H](C(=O)N[C@@H](Cc1c[nH]c2ccccc12)C(=O)NCCO)C(C)C` [compound 6843] (For-VGA[dT]A[dV]V[dV]W[dL]W[dL]W[dV]W-NHCH2CH2OH), for which the cell viability/% in data set [1] stood at 100.0%. For the same compound, in data set [2], the antibacterial activity result was “-”. Besides, in data set [3], the “H+/Na+ transport activity normalized” value is given as 1.15.
In the same order, the values of `CC(C)C[C@@H](NC(=O)[C@H](Cc1c[nH]c2ccccc12)NC(=O)[C@@H](CC(C)C)NC(=O)[C@H](Cc1c[nH]c2ccccc12)NC(=O)[C@@H](CC(C)C)NC(=O)[C@H](Cc1c[nH]c2ccccc12)NC(=O)[C@@H](CC(C)C)NC(=O)[C@@H](NC(=O)[C@H](NC(=O)[C@H](C)NC(=O)[C@H](NC(=O)[C@H](C)NC(=O)CNC(=O)[C@@H](NC=O)C(C)C)C(C)C)C(C)C)C(C)C)C(=O)N[C@@H](Cc1c[nH]c2ccccc12)C(=O)NCCO` [compound 3308] (For-VGA[dV]A[dV]V[dL]W[dL]W[dL]W[dL]W-NHCH2CH2OH) are 0.1%, “++” and 1.15.
Compound `CNC(=O)C[C@@H](NC(=O)[C@H](Cc1c[nH]c2ccccc12)NC(=O)[C@H](NC(=O)[C@H](Cc1c[nH]c2ccccc12)NC(=O)[C@@H](CC(C)C)NC(=O)[C@H](Cc1c[nH]c2ccccc12)NC(=O)[C@H](NC(=O)[C@@H](NC(=O)[C@@H](CC(C)C)NC(=O)[C@H](C)NC(=O)[C@H](NC(=O)[C@H](C)NC(=O)CNC(=O)[C@@H](NC=O)C(C)C)C(C)C)C(C)C)C(C)C)C(C)C)C(=O)N[C@@H](Cc1c[nH]c2ccccc12)C(=O)NCCO` [compound 7228] (For-VGA[dV]A[dL]V[dV]W[dL]W[dV]W[dD](NHMe)W-NHCH2CH2OH) had a cell viability/% in data set [1] of 100.0%. In addition, in data set [2], the antibacterial activity result is “-”. Also, in data set [3], the “H+/Na+ transport activity normalized” value is 1.06.
For `CC(C)C[C@@H](NC(=O)[C@H](Cc1c[nH]c2ccccc12)NC(=O)[C@H](NC(=O)[C@H](Cc1c[nH]c2ccccc12)NC(=O)[C@H](NC(=O)[C@H](Cc1c[nH]c2ccccc12)NC(=O)[C@@H](CC(C)C)NC(=O)[C@@H](NC(=O)[C@H](NC(=O)[C@H](C)NC(=O)[C@H](NC(=O)[C@H](C)NC(=O)CNC(=O)[C@@H](NC=O)C(C)C)[C@H](C)O)C(C)C)C(C)C)C(C)C)C(C)C)C(=O)N[C@@H](Cc1c[nH]c2ccccc12)C(=O)NCCO` [compound 9075] (For-VGA[dT]A[dV]V[dL]W[dV]W[dV]W[dL]W-NHCH2CH2OH) the same measures were 58.6%, “-” and 1.01.

The values above are taken from PMC7531004, “Discovery of gramicidin A analogues with altered activities by multidimensional screening of a one-bead-one-compound library” (Nature Communications, 2020).
